Laboratory results from article PMC3914206.

Experiments:
panel of 442 kinases [1] = molecular target: T1, panel of 442 kinases (Homo sapiens, UniProt Q9NRP7); assay type: binding; settings: kinase STK36; compound concentration 10 µM
T1 construct: purchased KINOMEscan
T1 sequence (Q9NRP7 1-1315): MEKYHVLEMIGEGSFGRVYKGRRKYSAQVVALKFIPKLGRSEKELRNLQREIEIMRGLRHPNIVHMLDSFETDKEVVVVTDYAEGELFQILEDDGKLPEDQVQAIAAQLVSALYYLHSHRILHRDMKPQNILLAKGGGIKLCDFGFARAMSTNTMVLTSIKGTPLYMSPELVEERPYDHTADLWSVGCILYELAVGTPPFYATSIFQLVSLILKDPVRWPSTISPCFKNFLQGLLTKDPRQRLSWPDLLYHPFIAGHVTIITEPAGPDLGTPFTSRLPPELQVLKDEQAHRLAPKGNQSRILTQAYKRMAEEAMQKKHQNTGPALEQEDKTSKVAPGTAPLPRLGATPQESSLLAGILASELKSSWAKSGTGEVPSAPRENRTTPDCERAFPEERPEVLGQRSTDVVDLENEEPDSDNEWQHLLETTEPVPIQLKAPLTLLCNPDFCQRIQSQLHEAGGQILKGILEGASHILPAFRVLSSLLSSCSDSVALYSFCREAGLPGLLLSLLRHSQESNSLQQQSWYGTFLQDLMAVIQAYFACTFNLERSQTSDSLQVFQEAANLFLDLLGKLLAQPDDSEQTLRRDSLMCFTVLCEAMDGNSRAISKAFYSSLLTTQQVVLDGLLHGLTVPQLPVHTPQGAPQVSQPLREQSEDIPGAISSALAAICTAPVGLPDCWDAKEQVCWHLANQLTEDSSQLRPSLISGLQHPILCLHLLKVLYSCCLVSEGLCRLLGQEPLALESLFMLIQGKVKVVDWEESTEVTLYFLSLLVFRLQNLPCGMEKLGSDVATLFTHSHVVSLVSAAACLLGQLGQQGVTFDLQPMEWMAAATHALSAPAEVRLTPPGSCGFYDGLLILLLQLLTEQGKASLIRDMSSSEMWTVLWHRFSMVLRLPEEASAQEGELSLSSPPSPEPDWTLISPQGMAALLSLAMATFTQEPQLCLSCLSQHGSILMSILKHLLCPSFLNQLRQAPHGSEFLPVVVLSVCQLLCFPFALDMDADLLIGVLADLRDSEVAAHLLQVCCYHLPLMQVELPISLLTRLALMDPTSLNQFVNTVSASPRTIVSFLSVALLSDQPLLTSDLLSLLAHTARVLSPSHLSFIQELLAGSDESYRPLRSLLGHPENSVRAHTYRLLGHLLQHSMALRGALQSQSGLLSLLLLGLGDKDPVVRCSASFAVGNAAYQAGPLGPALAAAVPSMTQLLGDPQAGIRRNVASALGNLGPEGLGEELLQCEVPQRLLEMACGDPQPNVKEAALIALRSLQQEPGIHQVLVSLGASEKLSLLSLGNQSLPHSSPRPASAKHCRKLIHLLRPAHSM
Excerpt: (§1) We assessed the selectivity of members of this scaffold using the KINOMEscan methodology across a near comprehensive panel of 442 kinases [[18,27]].

panel of 442 kinases [2] = molecular target: T2, panel of 442 kinases (Homo sapiens, UniProt Q9HBH9); assay type: binding; settings: Compound Concentration 10 µM
T2 construct: purchased KINOMEscan
Excerpt: as §1

T2 sequence (Q9HBH9 whole entry): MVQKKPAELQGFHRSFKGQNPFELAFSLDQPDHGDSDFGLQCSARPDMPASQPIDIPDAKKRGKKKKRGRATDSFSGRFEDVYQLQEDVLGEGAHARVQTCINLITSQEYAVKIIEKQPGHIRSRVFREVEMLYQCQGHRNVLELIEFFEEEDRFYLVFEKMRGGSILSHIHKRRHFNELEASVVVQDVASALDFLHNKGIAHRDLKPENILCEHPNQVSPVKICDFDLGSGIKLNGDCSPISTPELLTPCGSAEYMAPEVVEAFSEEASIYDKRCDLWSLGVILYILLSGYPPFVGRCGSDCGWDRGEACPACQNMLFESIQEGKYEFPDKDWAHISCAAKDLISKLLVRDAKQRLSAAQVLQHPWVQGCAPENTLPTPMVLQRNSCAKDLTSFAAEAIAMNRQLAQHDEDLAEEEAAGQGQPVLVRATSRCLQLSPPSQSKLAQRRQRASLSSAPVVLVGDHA

| SMILES | % Ctrl, STK36 (panel of 442 kinases [1]) | KINOMEscan: MKNK2 (panel of 442 kinases [2]) |
| --- | --- | --- |
| COc1cc(C(=O)N2CCC(N3CCN(C)CC3)CC2)ccc1Nc1ncc2c(n1)N(C)c1ccccc1C(=O)N2C [15 (LRRK2-IN-1)] | 97 % Ctrl | 1.2 |
| CCOc1cc(C(=O)N2CCC(N3CCN(C)CC3)CC2)ccc1Nc1ncc2c(n1)N(C1CCCC1)c1ccccc1C(=O)N2C [Compound 26] | 99 % Ctrl | 100 |
| COc1cc(C(=O)N2CCC(N3CCN(C)CC3)CC2)ccc1Nc1ncc2c(n1)N1CCc3cccc(c31)C(=O)N2C [Compound 24] |  | 8.6 |
| COc1cc(C(=O)N2CCC(N3CCN(C)CC3)CC2)ccc1Nc1ncc2c(n1)N(C1CCCC1)c1ccccc1C(=O)N2C [Compound 25, 11-cyclopentyl-2-((2-methoxy-4-(4-(4-methylpiperazin-1-yl)piperidine-1-carbonyl)phenyl)amino)-5-methyl-5H-benzo[e]pyrimido[5,4-b][1,4]diazepin-6(11H)-one] | 96 % Ctrl | 100 |
